In US6355428B1, “Nucleic acid ligand interaction assays” (Genelabs Technologies, Inc., priority 1998, dated 2002):

Key:
[1] = tested on: G/C rich sequence 5′-CGCGCC-3′ (SEQ ID NO: 7) F/Q indicator pair; assay: Fluorescence quenching direct binding assay, G/C rich DNA; settings: change in fluorescence similar to single-stranded controls
Procedure: The specific examples described in this section employ fluorescence quenching as the detection system. In these examples, because conditions are adjusted to maintain the oligonucleotides in single-stranded form in the absence of the ligand, the assay starts with the system at a high or maximum level of fluorescence, and fluorescence generally decreases, depending on binding affinity, as the ligand is added.
In the Figure legends, RNA oligonucleotides are denoted by an “r” at the beginning of the sequence, and single stranded controls by “ss” at the end of the sequence. These single stranded sequence, are used alone in control experiments, which thus employ only an “F” strand and no complementary quenching strand. Any quenching of fluorescence that is not due to hybridization can thus be acounted for. Maximum quenching expected on complete hybridization of these oligonucleotides is 85-90%; therefore some signal remains after complete hybridization. […]
According to the general method described above, increasing amounts of netropsin or actinomycin, respectively, were added to mixtures of selected F/Q indicator oligonucleotide pairs, whose sequences are shown in the legends of FIGS. 1 and 3. […] The Figures show the level of fluorescence observed, relative to a control having no added drug, for each indicator pair (or single strand) as the level of added drug was increased. […]

[2] = tested on: A/T rich, G/C rich and mixed sequence DNA oligonucleotides; assay: SPA direct binding assay, sequence preference over panel of indicator oligonucleotides
Source text: This technology can be applied to studies of ligand binding as disclosed herein. […] These beads are impregnated with scintillant. The second oligonucleotide is labeled with a weak β-emitter, such as ^3H or ^33P. The radioactive second oligonucleotide is mixed with a solution of the beads under conditions at which the first and second oligonucleotides exist primarily as single strands, as described above. The signal will thus be low, as the oligonucleotides are non-hybridized. When ligand is added, the duplex form is stabilized, and the increased proximity of the radioactive isotope (e.g., ^3H, ^33P) in the second oligonucleotide causes the bead to which the first oligonucleotide is bound to scintillate. A signal thus indicates the presence of an effective binding ligand molecule; test sequences giving higher signals indicate the relative preference for different sequences.
(§1) Indicator oligonucleotides as shown in Table 1 were used in this assay, as shown in Table II and FIGS. 4A-E. One strand of each duplex was labeled with biotin at the 5′-end, and the complementary strand was 3′-labeled with ^33P. The two complementary strands were incubated with streptavidin-coated SPA beads (Amersham, Arlington Heights, Ill.) at room temperature in a buffer containing 20 mM HEPES, pH 7.5, 0.1 mM EDTA, and 20 mM NaCl. In the absence of ligand, and under these conditions, the oligonucleotides exist in single-stranded conformation. As a result, the oligonucleotide containing the radioactive label is not in close proximity to the SPA bead, and the light given off by the beads is low, i.e., at background. As a duplex-stabilizing ligand is added, the radioactive ^33P is brought into close proximity to the SPA bead, and the light emitted from the SPA bead increases.

[3] = tested on: GCGGTATTT (mixed) DNA duplex (SEQ ID NO: 12); assay: SPA direct binding assay, mixed sequence indicator duplex
Source text: This technology can be applied to studies of ligand binding as disclosed herein. Example 13, below, describes the use of the assay in a high throughput screening method, using the SPA detection system. In this example, the first oligonucleotide is labeled with biotin, and is then tightly bound to streptavidin-coated SPA beads via the strong biotin/streptavidin interaction. These beads are impregnated with scintillant. The second oligonucleotide is labeled with a weak β-emitter, such as ^3H or ^33P. The radioactive second oligonucleotide is mixed with a solution of the beads under conditions at which the first and second oligonucleotides exist primarily as single strands, as described above. The signal will thus be low, as the oligonucleotides are non-hybridized. When ligand is added, the duplex form is stabilized, and the increased proximity of the radioactive isotope (e.g., ^3H, ^33P) in the second oligonucleotide causes the bead to which the first oligonucleotide is bound to scintillate. A signal thus indicates the presence of an effective binding ligand molecule; test sequences giving higher signals indicate the relative preference for different sequences.
The data in Table II compare raw signal counts from SPA assays using three different oligonucleotides and three concentrations (0, 100, and 500 nM) of the DNA binding drug distamycin. The oligonucleotides used were G/C-rich (CCGCGCC; SEQ ID NO: 6), A/T-rich (CTTTATTATTTT; SEQ ID NO: 2), or mixed sequence (GCGGTATTT; SEQ ID NO: 12) DNA duplexes. One strand of the duplex was synthesized with a 5′-biotin label, the other strand was labeled with ^33P, as described in Example 13.
as §1, with “The two complementary strands were incubated with streptavidin-coated SPA beads (Amersham, Arlington Heights, Ill.) at room temperature in a buffer containing 20 mM HEPES, pH 7.5, 0.1 mM EDTA, and 20 mM NaCl.” left out, “increases. Accordingly, each of five known DNA-binding compounds was added in increasing concentrations, and the effect on scintillation count was observed, giving the results shown in FIGS. 4A-E.” for “increases.”

CPM ([3]; 100 nM Distamycin, 10 mM Na+) [CPM]	CPM ([3]; 100 nM Distamycin, 50 mM Na+) [CPM]	CPM ([3]; 500 nM Distamycin, 10 mM Na+) [CPM]	CPM ([3]; 500 nM Distamycin, 50 mM Na+) [CPM]	SMILES	binding (decrease in fluorescence, FIG. 3A) [1]	sequence preference of binding (FIGS. 4A-E) ([2]; A/T rich 5′-AAAATAATAAAG, G/C rich 5′-GGCGCGG, mixed 5′-GTTGCAGATC, increasing drug)	duplex stabilization preference (Table II) ([2]; G/C-rich SEQ 6, A/T-rich SEQ 2, mixed SEQ 12 duplexes, 0, 100, 500 nM drug)
				Cn1cc(NC(=O)c2cc(NC(=O)CN=C(N)N)cn2C)cc1C(=O)NCCC(=N)N [Netropsin, netropsin]	does not bind well		
597	868	1951	2234	Cn1cc(NC(=O)c2cc(NC(=O)c3cc(NC=O)cn3C)cn2C)cc1C(=O)NCCC(=N)N [Distamycin, distamycin]		preference for A/T-rich and mixed sequences	preferentially stabilizes the A/T-rich duplex and the mixed duplex
